Laboratory results reported in ChEMBL document CHEMBL1148572, “1-((S)-2-aminopropyl)-1H-indazol-6-ol: a potent peripherally acting 5-HT2 receptor agonist with ocular hypotensive activity” (J Med Chem, 2006).

Assays:
[1] = molecular target: Adrenergic receptor beta (Homo sapiens) (UniProt P08588+P07550+P13945); experiment: Inhibition of non selective binding to adrenergic beta receptor at 1 nM; format: protein assay
[2] = molecular target: T1, Cysteinyl leukotriene receptor 1 (Homo sapiens) (UniProt Q9Y271); experiment: Inhibition of leukotriene D4 at 1 nM
T1 sequence (whole entry): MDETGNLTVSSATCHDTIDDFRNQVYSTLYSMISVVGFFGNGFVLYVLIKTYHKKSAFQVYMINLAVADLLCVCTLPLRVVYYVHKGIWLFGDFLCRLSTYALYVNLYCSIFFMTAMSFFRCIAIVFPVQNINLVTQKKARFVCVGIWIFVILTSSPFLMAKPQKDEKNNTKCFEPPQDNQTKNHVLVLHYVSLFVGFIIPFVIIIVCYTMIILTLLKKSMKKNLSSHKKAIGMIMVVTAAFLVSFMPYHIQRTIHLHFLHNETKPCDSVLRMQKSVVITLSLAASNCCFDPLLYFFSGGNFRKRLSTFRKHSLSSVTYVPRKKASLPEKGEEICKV

[3] = molecular target: 5-hydroxytryptamine receptor 1D (Homo sapiens, UniProt P28221); experiment: Inhibitory activity against 5HT1D receptor
5-hydroxytryptamine receptor 1D, sequence (P28221 whole entry): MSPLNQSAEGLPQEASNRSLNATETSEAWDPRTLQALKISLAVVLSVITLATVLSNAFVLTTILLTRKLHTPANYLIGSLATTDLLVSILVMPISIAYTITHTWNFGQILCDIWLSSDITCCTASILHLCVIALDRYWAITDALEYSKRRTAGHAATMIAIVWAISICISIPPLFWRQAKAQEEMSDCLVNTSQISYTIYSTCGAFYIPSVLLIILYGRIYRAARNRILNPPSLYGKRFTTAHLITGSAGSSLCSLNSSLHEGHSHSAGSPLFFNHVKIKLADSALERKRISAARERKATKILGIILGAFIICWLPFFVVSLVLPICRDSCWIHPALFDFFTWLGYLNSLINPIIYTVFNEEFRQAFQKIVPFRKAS

[4] = molecular target: Protein kinase C, PKC; classical/novel (Homo sapiens) (UniProt O94806+P17252+P05129+Q05655+P05771+Q02156+P24723+Q15139+Q04759); experiment: Inhibition of PDBu activated protein kinase C at 1 nM; format: protein assay
[5] = molecular target: Adenosine receptor (Homo sapiens) (UniProt P30542+P29275+P0DMS8+P29274); experiment: Inhibition of non selective binding to adenosine receptor at 10 uM; format: protein assay
[6] = molecular target: Estrogen receptor (Homo sapiens) (UniProt Q92731+P03372); experiment: Inhibition of estrogen receptor at 10 uM; format: protein assay
[7] = molecular target: Voltage-dependent N-type calcium channel subunit alpha-1B (Homo sapiens) (UniProt Q00975); experiment: Inhibitory activity at Calcium channel N type at 10 uM
Voltage-dependent N-type calcium channel subunit alpha-1B (Homo sapiens), sequence (Q00975 whole entry, looked up): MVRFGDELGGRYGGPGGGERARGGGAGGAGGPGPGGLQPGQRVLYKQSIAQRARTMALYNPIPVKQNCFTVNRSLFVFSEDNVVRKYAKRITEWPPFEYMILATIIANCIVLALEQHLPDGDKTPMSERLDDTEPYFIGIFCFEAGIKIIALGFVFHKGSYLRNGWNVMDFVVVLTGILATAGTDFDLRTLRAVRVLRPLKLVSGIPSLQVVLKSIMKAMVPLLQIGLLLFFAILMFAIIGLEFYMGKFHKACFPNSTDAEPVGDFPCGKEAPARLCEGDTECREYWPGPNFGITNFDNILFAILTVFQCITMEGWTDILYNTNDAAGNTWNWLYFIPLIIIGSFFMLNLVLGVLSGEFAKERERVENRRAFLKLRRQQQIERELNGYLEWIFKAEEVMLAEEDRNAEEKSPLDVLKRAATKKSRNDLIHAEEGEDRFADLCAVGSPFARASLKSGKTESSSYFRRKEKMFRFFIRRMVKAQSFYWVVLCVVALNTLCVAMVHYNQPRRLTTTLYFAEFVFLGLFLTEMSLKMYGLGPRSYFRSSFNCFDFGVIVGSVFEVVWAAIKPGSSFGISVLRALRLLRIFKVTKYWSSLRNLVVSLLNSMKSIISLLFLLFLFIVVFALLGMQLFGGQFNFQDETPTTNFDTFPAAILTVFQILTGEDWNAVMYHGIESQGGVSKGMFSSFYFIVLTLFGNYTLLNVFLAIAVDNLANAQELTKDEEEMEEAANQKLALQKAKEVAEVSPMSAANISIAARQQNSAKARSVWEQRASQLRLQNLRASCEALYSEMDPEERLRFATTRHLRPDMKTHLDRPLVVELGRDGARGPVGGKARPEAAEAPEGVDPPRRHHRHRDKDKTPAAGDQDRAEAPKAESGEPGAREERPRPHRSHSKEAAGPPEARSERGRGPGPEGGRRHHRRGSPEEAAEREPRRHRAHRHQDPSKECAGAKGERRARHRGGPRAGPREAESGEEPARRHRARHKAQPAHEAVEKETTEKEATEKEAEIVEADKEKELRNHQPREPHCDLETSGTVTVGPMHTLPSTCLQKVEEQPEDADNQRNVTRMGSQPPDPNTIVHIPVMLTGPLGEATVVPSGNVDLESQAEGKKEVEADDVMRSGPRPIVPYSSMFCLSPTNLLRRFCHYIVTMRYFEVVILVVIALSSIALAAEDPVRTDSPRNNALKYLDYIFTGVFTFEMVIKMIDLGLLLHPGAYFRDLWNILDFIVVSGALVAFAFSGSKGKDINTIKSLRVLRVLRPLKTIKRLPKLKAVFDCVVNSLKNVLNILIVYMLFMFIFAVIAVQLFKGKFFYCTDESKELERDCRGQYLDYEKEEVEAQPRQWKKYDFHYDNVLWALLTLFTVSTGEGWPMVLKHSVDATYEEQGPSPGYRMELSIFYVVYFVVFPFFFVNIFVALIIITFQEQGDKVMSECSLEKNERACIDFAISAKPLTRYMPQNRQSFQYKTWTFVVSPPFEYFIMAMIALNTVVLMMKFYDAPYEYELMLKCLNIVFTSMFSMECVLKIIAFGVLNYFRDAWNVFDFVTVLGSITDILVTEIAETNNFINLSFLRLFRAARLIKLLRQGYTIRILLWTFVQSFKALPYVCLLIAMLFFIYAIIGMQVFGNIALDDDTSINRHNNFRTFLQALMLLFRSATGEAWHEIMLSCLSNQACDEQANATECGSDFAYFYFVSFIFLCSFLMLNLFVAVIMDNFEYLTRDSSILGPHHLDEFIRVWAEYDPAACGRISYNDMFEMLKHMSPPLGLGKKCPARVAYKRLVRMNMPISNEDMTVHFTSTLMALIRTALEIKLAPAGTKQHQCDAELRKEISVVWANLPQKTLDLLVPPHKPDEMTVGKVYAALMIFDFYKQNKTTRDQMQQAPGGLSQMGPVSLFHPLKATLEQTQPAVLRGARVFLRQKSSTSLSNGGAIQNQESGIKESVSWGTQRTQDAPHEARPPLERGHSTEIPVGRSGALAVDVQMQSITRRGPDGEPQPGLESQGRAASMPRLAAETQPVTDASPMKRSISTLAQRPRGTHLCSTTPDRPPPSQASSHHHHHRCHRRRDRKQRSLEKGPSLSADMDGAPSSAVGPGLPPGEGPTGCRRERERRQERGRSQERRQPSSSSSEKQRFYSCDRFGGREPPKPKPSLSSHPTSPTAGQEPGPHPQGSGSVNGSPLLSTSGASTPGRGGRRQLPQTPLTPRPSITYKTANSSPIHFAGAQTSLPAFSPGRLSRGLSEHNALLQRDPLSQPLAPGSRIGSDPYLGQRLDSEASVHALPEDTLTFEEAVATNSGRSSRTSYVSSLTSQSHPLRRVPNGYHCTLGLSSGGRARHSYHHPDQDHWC

[8] = molecular target: Sigma non-opioid intracellular receptor 1 (Homo sapiens) (UniProt Q99720); experiment: Inhibition of non selective binding to sigma receptor at 100 nM
Sigma non-opioid intracellular receptor 1 (Homo sapiens), sequence (Q99720 whole entry): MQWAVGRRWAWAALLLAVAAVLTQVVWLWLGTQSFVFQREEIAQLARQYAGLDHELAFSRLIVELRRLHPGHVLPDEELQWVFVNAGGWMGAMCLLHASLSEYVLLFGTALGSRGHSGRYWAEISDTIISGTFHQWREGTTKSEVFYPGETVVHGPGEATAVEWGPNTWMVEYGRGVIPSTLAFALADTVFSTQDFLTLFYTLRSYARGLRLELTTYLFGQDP

[9] = Inhibition of P2Y purinergic receptor at 1 nM
[10] = molecular target: Platelet-activating factor receptor (Homo sapiens) (UniProt P25105); experiment: Inhibition of PAF at 100 nM
Platelet-activating factor receptor (Homo sapiens), sequence (P25105 whole entry): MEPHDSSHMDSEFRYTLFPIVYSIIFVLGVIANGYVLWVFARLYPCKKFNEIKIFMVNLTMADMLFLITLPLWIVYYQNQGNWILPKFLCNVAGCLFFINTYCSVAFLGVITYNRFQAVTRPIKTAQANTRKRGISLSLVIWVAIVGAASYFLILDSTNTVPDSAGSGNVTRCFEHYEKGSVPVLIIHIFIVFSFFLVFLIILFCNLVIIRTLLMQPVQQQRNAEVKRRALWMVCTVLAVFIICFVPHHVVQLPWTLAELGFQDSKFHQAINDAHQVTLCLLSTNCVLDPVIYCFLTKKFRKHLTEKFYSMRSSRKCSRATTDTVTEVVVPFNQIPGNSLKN

[11] = molecular target: Glutamate [NMDA] receptor (Homo sapiens) (UniProt Q05586+Q12879+Q13224+O15399+O60391+Q14957+Q8TCU5); experiment: Inhibition of MK-801 site of glutamate receptor at 1 nM; format: protein-complex assay
[12] = molecular target: T2, Endothelin-1 receptor (Homo sapiens) (UniProt P25101); experiment: Inhibition of human recombinant endothelin 1 receptor at 10 uM
T2 sequence (whole entry): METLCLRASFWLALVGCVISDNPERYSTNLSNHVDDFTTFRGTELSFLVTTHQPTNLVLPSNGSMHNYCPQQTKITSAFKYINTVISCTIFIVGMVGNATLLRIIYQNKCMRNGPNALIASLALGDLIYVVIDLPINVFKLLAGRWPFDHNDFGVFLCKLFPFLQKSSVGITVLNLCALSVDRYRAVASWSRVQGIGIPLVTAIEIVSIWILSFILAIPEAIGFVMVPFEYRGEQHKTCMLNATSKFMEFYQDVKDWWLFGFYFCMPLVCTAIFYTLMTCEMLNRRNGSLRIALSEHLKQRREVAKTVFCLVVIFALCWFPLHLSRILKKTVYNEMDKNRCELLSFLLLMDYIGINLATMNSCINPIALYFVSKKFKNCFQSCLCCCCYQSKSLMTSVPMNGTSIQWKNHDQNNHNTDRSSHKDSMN

[13] = molecular target: T3, Androgen receptor (Homo sapiens) (UniProt P10275); experiment: Inhibition of testosterone receptor at 100 nM
T3 sequence (whole entry): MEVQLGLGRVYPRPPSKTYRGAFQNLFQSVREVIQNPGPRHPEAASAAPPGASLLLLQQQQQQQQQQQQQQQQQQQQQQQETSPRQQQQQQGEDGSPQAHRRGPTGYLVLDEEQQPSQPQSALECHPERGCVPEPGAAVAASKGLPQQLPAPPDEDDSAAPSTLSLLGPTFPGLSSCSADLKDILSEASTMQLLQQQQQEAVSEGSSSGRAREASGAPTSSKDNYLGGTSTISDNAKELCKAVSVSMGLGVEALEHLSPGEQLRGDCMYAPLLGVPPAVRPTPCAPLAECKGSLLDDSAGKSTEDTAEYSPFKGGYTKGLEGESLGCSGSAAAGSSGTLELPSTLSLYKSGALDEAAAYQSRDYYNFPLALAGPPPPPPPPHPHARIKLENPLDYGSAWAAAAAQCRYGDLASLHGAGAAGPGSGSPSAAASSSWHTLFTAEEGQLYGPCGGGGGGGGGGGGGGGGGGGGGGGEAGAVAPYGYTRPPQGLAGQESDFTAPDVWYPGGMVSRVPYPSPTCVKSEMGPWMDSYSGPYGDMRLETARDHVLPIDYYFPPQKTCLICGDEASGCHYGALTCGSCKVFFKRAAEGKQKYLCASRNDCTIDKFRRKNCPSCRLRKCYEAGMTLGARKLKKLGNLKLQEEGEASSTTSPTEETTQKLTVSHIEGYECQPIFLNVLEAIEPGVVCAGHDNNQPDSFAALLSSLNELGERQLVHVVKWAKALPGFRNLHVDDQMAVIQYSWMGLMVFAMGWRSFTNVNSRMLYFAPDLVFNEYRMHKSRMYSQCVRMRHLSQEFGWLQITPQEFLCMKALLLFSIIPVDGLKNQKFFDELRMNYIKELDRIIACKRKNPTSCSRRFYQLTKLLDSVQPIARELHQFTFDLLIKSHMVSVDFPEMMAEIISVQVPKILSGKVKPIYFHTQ

[14] = molecular target: GABA-A receptor; benzodiazepine site (Homo sapiens) (UniProt P14867+P18507+P48169+Q99928+P34903+Q8N1C3+P47869+P31644+Q16445); experiment: Inhibition of central benzodiazepine site on GABAA receptor at 100 nM; format: protein-complex assay
[15] = molecular target: Muscarinic acetylcholine receptor (Homo sapiens) (UniProt P20309+P08173+P11229+P08172+P08912); experiment: Inhibition of non selective binding to muscarinic receptor at 1 nM; format: protein assay
[16] = molecular target: Dopamine receptor (Homo sapiens) (UniProt P14416+P35462+P21918+P21917+P21728); experiment: Inhibition of non selective binding to dopamine receptor at 1 nM; format: protein assay
[17] = molecular target: GABA-A receptor; agonist GABA site (Homo sapiens) (UniProt P14867+P47870+P28472+P48169+P34903+P18505+P47869+P31644+Q16445); experiment: Inhibition of agonist site of GABAA receptor at 10 uM; format: functional
[18] = molecular target: T3, Androgen receptor (Homo sapiens); experiment: Inhibition of testosterone receptor at 1 nM
[19] = molecular target: Sigma non-opioid intracellular receptor 1 (Homo sapiens) (UniProt Q99720); experiment: Inhibition of non selective binding to sigma receptor at 10 uM
[20] = molecular target: 5-hydroxytryptamine receptor 2A (Homo sapiens, UniProt P28223); format: cell-based, CHO
5-hydroxytryptamine receptor 2A, sequence (P28223 whole entry): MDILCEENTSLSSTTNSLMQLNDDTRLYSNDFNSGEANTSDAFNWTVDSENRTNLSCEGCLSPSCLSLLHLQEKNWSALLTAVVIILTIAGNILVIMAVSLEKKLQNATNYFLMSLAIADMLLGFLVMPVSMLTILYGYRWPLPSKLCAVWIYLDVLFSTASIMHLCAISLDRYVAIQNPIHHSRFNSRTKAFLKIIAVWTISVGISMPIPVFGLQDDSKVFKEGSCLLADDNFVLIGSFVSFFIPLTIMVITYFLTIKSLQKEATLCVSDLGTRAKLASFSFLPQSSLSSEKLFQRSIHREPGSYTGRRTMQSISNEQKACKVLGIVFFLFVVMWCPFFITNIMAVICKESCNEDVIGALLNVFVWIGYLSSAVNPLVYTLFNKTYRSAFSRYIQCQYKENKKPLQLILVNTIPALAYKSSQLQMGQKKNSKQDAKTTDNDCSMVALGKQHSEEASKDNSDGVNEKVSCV

[21] = Inhibitory activity at calcium activated potassium channel 6 at 1 nM

C[C@H](N)Cn1ncc2ccc(O)cc21
inhibition [1]: -5.75%
inhibition [2]: 2.65%
Ki [3]: 7.87 µM
inhibition [4]: 12.6%
inhibition [5]: 13.2%
inhibition [6]: 17.7%
inhibition [7]: 15.4%
inhibition [8]: 0.17%
inhibition [9]: -2.2%
inhibition [10]: 24.8%
inhibition [11]: -7.45%
inhibition [12]: -6.96%
inhibition [13]: 0.86%
inhibition [14]: 18.8%
inhibition [15]: -0.51%
inhibition [16]: 10.7%
inhibition [17]: 6.69%
inhibition [18]: 0.47%
inhibition [19]: -7.73%
Ki [20]: 0.012 µM
inhibition [21]: 10.4%
